Consider one compound from patent publication US7390630B1, “Method of identifying a compound that selectively inhibits cytokine-stimulated T cell induced production of TNF-alpha by monocytes” (Mathilda and Terence Kennedy Institute of Rheumatology Trust, priority 1999, dated 2008).

This experiment deals with monocyte TNFα production induced by RA CD3+ enriched cells. Nature of the experiment: Monocyte TNFα production induced by fixed RA synovial CD3+ enriched T cells. To be noted: RA T cells:monocytes 5:1, 18 h. It counts as cell-based, Human. As for the experimental part: Rheumatoid arthritis (RA) mononuclear cells were obtained from synovial tissue specimens provided by the Rheumatology Clinic, Charing Cross Hospital, London, UK. Tissue was teased into small pieces and digested in medium containing 0.15 mg/ml DNase type 1 (Sigma, UK) and 5 mg/ml collagenase (Roche, UK) for 1 to 2 hours at 37° C. After passing cells through nylon mesh to exclude cell debris, cells were washed and resuspended in RPMI medium (Biohittaker, Verviers, Belgium) (containing 10% heat-inactivated FCS) at a density of 1×10^6 cells/ml and used immediately.
CD3+ enriched cells were isolated from RA synovial mononuclear cells by direct, positive selection using Dynabeads (Dynal UK Ltd, Wirral, UK) coated with anti-CD3 monoclonal antibodies (anti-CD3 mAbs). Briefly, mononuclear cells (1×10^7) were cultured with 100 μl anti-CD3 mAb-coated Dynabeads for 20 minutes at 4° C. under constant rotation. Cells attached to beads were isolated using a magnetic particle concentrator (Dynal, Merseyside, UK) and cultured for 6 hours at 37° C. Detached cells were removed from magnetic beads and washed three times using the magnetic particle concentrator.
This technique allowed for isolation of CD3+ cells, yielding cells of high purity (>99%) and viability (>95%). Following isolation, CD3+ enriched cells were washed three times in RPMI medium containing 1% heat-inactivated FCS, fixed for 1 minute at 0° C. in phosphate-buffered saline (PBS) containing 0.05% glutaraldehyde, and neutralized with an equivalent volume of T lymphocyte neutralizing buffer containing 0.2 M glycine. Following a further three washes, the fixed CD3+ cells were resuspended (at a concentration of 2×10^6 cell/ml) in RPMI medium containing 5% heat-inactivated FCS, and stored for up to 7 days at 4° C. until used. Prior to use, CD3+ enriched cells were washed twice in complete medium.
Monocytes were cultured at 1×10^6 cells/ml in RPMI 1640 medium (containing 5% heat-inactivated FCS) in round-bottomed 96-well culture plates (Nunc Life Technologies Ltd., Paisley, Scotland) in the presence of fixed T cells at varying T-cell/monocyte ratios ranging from 1:1 to 7:1 (as indicated). In some experiments, a semi-permeable membrane insert (Nunc Life Technologies Ltd., Paisley, Scotland) was fitted into the culture wells to physically separate the monocytes from the T cells. In all experiments, efficient fixation of T cells was tested by incubating an aliquot of T-cells (7×10^6 cells/ml) in the absence of monocytes and assaying the amount of TNFα released by the cells under these conditions. Lipopolysaccharide (LPS, 10 ng/ml) was included in experiments as a positive control for monocyte cytokine production.
Reagents for the TNFα ELISA were provided by Dr. W. Buurman (Rijks Universiteit Limburg, Maastricht, Netherlands). The ELISA was performed using immobilized anti-TNFα mAb 61E71. and developed using a rabbit anti-TNFα polyclonal antibody. An alternative ELISA for TNFα is commercially available from Pharmingen. The rabbit polyclonal antibody was detected using a peroxidase-conjugated goat anti-rabbit IgG (H+L) (Jackson Immunoresearch Laboratories Inc., Westgrove, PE, USA) followed by an appropriate substrate. The sensitivity range of the assay was 1.6 to 5000 pg/ml.
For monocyte/T-cell co-culture experiments, monocytes were cultured with relevant enzyme inhibitors at 37° C. for varying periods of time (see legend to Table 2) prior to co-culture with fixed T-cells for 18 hours. Supernatants were harvested and assayed for presence of TNFα by ELISA. Cell suspensions were taken for determination of cell viability. […]
The effect of wortmannin and LY294002 was also studied on monocyte TNFα production induced by RA CD3+ ve enriched cells (see Table 2). Normal monocytes isolated by elutriation were treated with selective enzyme inhibitors for the designated times prior to co-culture with fixed rheumatoid CD3+ T cells at a ratio 5:1 (T cells to monocytes) for 18 hours. […]

Values joined by “and” are separate entries in the source; they are usually repeats but may differ in a detail not shown here. Equal entries are not always repeated.

Take `O=c1cc(N2CCOCC2)oc2c(-c3ccccc3)cccc12` [LY294002]: the “TNFα” value (LY294002 50 μM 30 min, Wortmannin 500 nM 30 min, AKTA 5 mM 30 min, Rapamycin 10 μM 60 min, untreated control 686 ± 59, mean ±SD) was 883 ± 304 pg/mL and 883 ± 38 pg/mL. Also, the Percent change result (change of TNFα versus untreated control, LY294002 50 μM, Wortmannin 500 nM, AKTA 5 mM, Rapamycin 10 μM) is listed as “+29%”.
